Laboratory results: patent US7553864B2, “Compounds for the treatment of inflammatory disorders and microbial diseases” (Schering Corporation, priority 2005, dated 2009)

Test system: LpxC enzyme
Assay: LpxC enzyme assay (RapidFire high-throughput mass spectrometry)
Type: biochemical
In short: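 0.2 nM enzyme with 1.0 μM UDP-3-O-(R-3-hydroxymyristoyl)-N-acetylglucosamine in 25 mM HEPES pH 7.3, 150 mM NaCl, 2.0 mM DTT, 0.01% BSA, 2% DMSO; 60 min at room temperature, quenched with HCl. Substrate and product quantified by RapidFire mass spectrometry; percent conversion gives percent inhibition versus DMSO control.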

[1] = concentration 0.10 (unit not given)
[2] = concentration 0.20 (unit not given)
[3] = concentration 0.39 (unit not given)
[4] = concentration 0.78 (unit not given)
[5] = concentration 1.56 (unit not given)
[6] = concentration 3.13 (unit not given)
[7] = concentration 6.25 (unit not given)
[8] = concentration 12.50 (unit not given)
[9] = concentration 25 (unit not given)
[10] = concentration 50 (unit not given)

SMILES | LpxC enzyme assay rating (% inhibition at indicated concentrations) [1] | LpxC enzyme assay rating (% inhibition at indicated concentrations) [2] | LpxC enzyme assay rating (% inhibition at indicated concentrations) [3] | LpxC enzyme assay rating (% inhibition at indicated concentrations) [4] | LpxC enzyme assay rating (% inhibition at indicated concentrations) [5] | LpxC enzyme assay rating (% inhibition at indicated concentrations) [6] | LpxC enzyme assay rating (% inhibition at indicated concentrations) [7] | LpxC enzyme assay rating (% inhibition at indicated concentrations) [8] | LpxC enzyme assay rating (% inhibition at indicated concentrations) [9] | LpxC enzyme assay rating (% inhibition at indicated concentrations) [10]
CN1CCN(c2ccc(NC(=O)[C@H](O)[C@@H](O)C(=O)N(C)C)cc2)CC1 [Compound 55] | C (less than 10% inhibition) | B (10-30% inhibition) | C (less than 10% inhibition) | B (10-30% inhibition) | B (10-30% inhibition) | B (10-30% inhibition) | C (less than 10% inhibition) | C (less than 10% inhibition) | B (10-30% inhibition) | B (10-30% inhibition)
O=C(Nc1ccc(-c2ccccc2)cc1)[C@H](O)[C@@H](O)C(=O)N1CCCC1 [Compound 64] | B (10-30% inhibition) | B (10-30% inhibition) | C (less than 10% inhibition) | B (10-30% inhibition) | C (less than 10% inhibition) | B (10-30% inhibition) | B (10-30% inhibition) | B (10-30% inhibition) | B (10-30% inhibition) | B (10-30% inhibition)
O=C([C@H](O)[C@@H](O)C(=O)N1CCC(c2ccc3ccccc3c2)CC1)N1CCCC1 [Compound 70] | C (less than 10% inhibition) | C (less than 10% inhibition) | C (less than 10% inhibition) | B (10-30% inhibition) | C (less than 10% inhibition) | C (less than 10% inhibition) | C (less than 10% inhibition) | C (less than 10% inhibition) | B (10-30% inhibition) | C (less than 10% inhibition)
O=C(Nc1ccc(C#Cc2ccccc2)cc1)[C@H](O)[C@@H](O)C(=O)N1CCCC1 [Compound 63] | B (10-30% inhibition) | B (10-30% inhibition) | B (10-30% inhibition) | C (less than 10% inhibition) | B (10-30% inhibition) | B (10-30% inhibition) | B (10-30% inhibition) | A (greater than 30% inhibition) | A (greater than 30% inhibition) | A (greater than 30% inhibition)
CN(C)CCCOc1ccc(NC(=O)[C@H](O)[C@@H](O)C(=O)N(C)C)cc1 [Compound 57] | B (10-30% inhibition) | C (less than 10% inhibition) | B (10-30% inhibition) | C (less than 10% inhibition) | C (less than 10% inhibition) | C (less than 10% inhibition) | C (less than 10% inhibition) | C (less than 10% inhibition) | B (10-30% inhibition) | C (less than 10% inhibition)
CN(C)C(=O)[C@H](O)[C@@H](O)C(=O)Nc1ccc(C#Cc2ccccc2)cc1 [Compound 43] | C (less than 10% inhibition) | B (10-30% inhibition) | C (less than 10% inhibition) | C (less than 10% inhibition) | B (10-30% inhibition) | B (10-30% inhibition) | B (10-30% inhibition) | A (greater than 30% inhibition) | A (greater than 30% inhibition) | A (greater than 30% inhibition)
CCC(C)c1ccc(NC(=O)[C@H](O)[C@@H](O)C(=O)N(C)C)cc1 (stereo partly drawn) [Compound 50] | C (less than 10% inhibition) | C (less than 10% inhibition) | C (less than 10% inhibition) | B (10-30% inhibition) | C (less than 10% inhibition) | C (less than 10% inhibition) | B (10-30% inhibition) | B (10-30% inhibition) | C (less than 10% inhibition) | B (10-30% inhibition)
O=C(NCCCCl)[C@H](O)[C@@H](O)C(=O)Nc1ccc(C#Cc2ccccc2)cc1 [Compound 60] | C (less than 10% inhibition) | C (less than 10% inhibition) | B (10-30% inhibition) | B (10-30% inhibition) | C (less than 10% inhibition) | B (10-30% inhibition) | B (10-30% inhibition) | B (10-30% inhibition) | C (less than 10% inhibition) | C (less than 10% inhibition)
CNC(=O)[C@H](O)[C@@H](O)C(=O)n1ccc2cc(C#Cc3ccccc3)ccc21 [Compound 26] | C (less than 10% inhibition) | C (less than 10% inhibition) | C (less than 10% inhibition) | C (less than 10% inhibition) | C (less than 10% inhibition) | C (less than 10% inhibition) | C (less than 10% inhibition) | B (10-30% inhibition) | C (less than 10% inhibition) | B (10-30% inhibition)
